ChEMBL document CHEMBL5149986, “Spliceostatins and Derivatives: Chemical Syntheses and Biological Properties of Potent Splicing Inhibitors” (J Nat Prod, 2021)

Columns and labels:
MES-SA = assay: Cytotoxicity against human MES-SA cells assessed as inhibition in cell growth; assay type: functional, cell-based
[1] = Cytotoxicity against HEK293T cells assessed as inhibition in cell growth; assay type: toxicity, cell-based, HEK-293T; conditions: human
MES-SA/Dx5 = assay: Cytotoxicity against human MES-SA/Dx5 cells assessed as inhibition in cell growth; assay type: functional, cell-based

SMILES	IC50 (MES-SA) [nM]	IC50 [1] [nM]	IC50 (MES-SA/Dx5) [nM]
CC(=O)O[C@@H](C)/C=C\C(=O)N[C@@H]1C[C@H](C)[C@H](C/C=C(C)/C=C/[C@H]2O[C@H](C)C[C@@]3(CO3)[C@@H]2O)O[C@@H]1C	0.55	0.1	0.56
CC(=O)O[C@@H](C)/C=C\C(=O)N[C@@H]1C[C@H](C)[C@H](C/C=C(C)/C=C/[C@H]2O[C@H](CC(=O)O)C[C@@](O)(CCl)[C@@H]2O)O[C@@H]1C [THAILANSTATIN B]	856	194	> 1000
CC(/C=C/[C@H]1O[C@H](CC(=O)NCCC(=O)O)C[C@@]2(CO2)[C@@H]1O)=C\C[C@@H]1O[C@H](C)[C@H](NC(=O)/C=C\[C@H](C)OC(=O)C(C)C)C[C@@H]1C	4.58	1.44	74
CC(=O)O[C@@H](C)/C=C\C(=O)N[C@@H]1C[C@H](C)[C@H](C/C=C(C)/C=C/[C@H]2O[C@H](CCN=[N+]=[N-])C[C@@]3(CO3)[C@@H]2O)O[C@@H]1C	1.08	0.028	0.72
CO[C@@H]1C[C@@]2(CO2)[C@H](O)[C@@H](/C=C/C(C)=C/C[C@@H]2O[C@H](C)[C@H](NC(=O)/C=C\[C@H](C)OC(=O)N(C)C)C[C@@H]2C)O1	1.08	0.09	2.01
CC(/C=C/[C@H]1O[C@H](C)C[C@@]2(CO2)[C@@H]1O)=C\C[C@@H]1O[C@H](C)[C@H](NC(=O)/C=C\[C@H](C)OC(=O)N2CCOCC2)C[C@@H]1C	0.38	0.08	1.48
CC(=O)O[C@@H](C)/C=C\C(=O)N[C@@H]1C[C@H](C)[C@H](C/C=C(C)/C=C/[C@H]2O[C@H](CC(=O)O)C[C@@]3(CO3)[C@@H]2O)O[C@@H]1C [THAILANSTATIN A]	419	296	> 400
CC(/C=C/[C@H]1O[C@H](C)C[C@@]2(CO2)[C@@H]1O)=C\C[C@@H]1O[C@H](C)[C@H](NC(=O)/C=C\[C@H](C)NC(=O)N(C)C)C[C@@H]1C	1.97	0.28	> 16
CC(/C=C/[C@H]1O[C@H](C)C[C@@]2(CO2)[C@@H]1O)=C\C[C@@H]1O[C@H](C)[C@H](NC(=O)/C=C\[C@H](C)NC(=O)N2CCOCC2)C[C@@H]1C	2.87	0.3	100
CO[C@@H]1C[C@@]2(CO2)[C@H](O)[C@@H](/C=C/C(C)=C/C[C@@H]2O[C@H](C)[C@H](NC(=O)/C=C\[C@H](C)OC(=O)N(C)CCO)C[C@@H]2C)O1	0.63	0.009	11
CC(/C=C/[C@H]1O[C@H](C)C[C@@]2(CO2)[C@@H]1O)=C\C[C@@H]1O[C@H](C)[C@H](NC(=O)/C=C\[C@H](C)OC(=O)N2CCN(C(=O)OC(C)(C)C)CC2)C[C@@H]1C	2.87	0.018	7.01
C=C1C[C@@H](CC(=O)O)O[C@H](/C=C/C(C)=C/C[C@@H]2O[C@H](C)[C@H](NC(=O)/C=C\[C@H](C)OC(C)=O)C[C@@H]2C)[C@H]1O	> 1000	> 1000	> 1000
CC(/C=C/[C@H]1O[C@H](CC(=O)OC(C)(C)C)C[C@@]2(CO2)[C@@H]1O)=C\C[C@@H]1O[C@H](C)[C@H](NC(=O)/C=C\[C@H](C)OC(=O)C(C)C)C[C@@H]1C	11.3	0.099	4.83
CO[C@@H]1C[C@@]2(CO2)[C@H](O)[C@@H](/C=C/C(C)=C/C[C@@H]2O[C@H](C)[C@H](NC(=O)/C=C\[C@H](C)OC(=O)N3CCOCC3)C[C@@H]2C)O1	0.49	0.006	13.8
CC(/C=C/[C@H]1O[C@H](CC(=O)OC(C)(C)C)C[C@@](O)(CCl)[C@@H]1O)=C\C[C@@H]1O[C@H](C)[C@H](NC(=O)/C=C\[C@H](C)OC(=O)C(C)C)C[C@@H]1C	264	0.13	10.3
CC(=O)O[C@@H](C)/C=C\C(=O)N[C@@H]1C[C@H](C)[C@H](C/C=C(C)/C=C/[C@H]2O[C@H](CCC#N)C[C@@]3(CO3)[C@@H]2O)O[C@@H]1C	0.82	0.099	2.6
